Several values for one entry are separate records, joined by “and”; a condition that tells them apart may be missing. Equal values may be shown once. Where a name gives a salt, the structure may show the parent alone.
How the values were obtained:
SARS-CoV-2 [1] = assay: Antiviral activity against SARS-CoV-2 (USA-WA1/2020 strain) measured by imaging in Vero cells at MOI 0.08 after 48 hrs (reported as hit score from 0-1 for on-disease vs off-disease activity: scores >0.6 considered hits); type: functional, Chlorocebus sabaeus
SARS-CoV-2 [2] = assay: Antiviral activity against SARS-CoV-2 (USA-WA1/2020 strain) measured by imaging in HRCE cells at MOI 0.4 after 96 hrs (reported as hit score from 0-1 for on-disease vs off-disease activity: scores >0.6 considered hits); type: functional; conditions: Homo sapiens

| Compound | Hit score (SARS-CoV-2 [1]) | Hit score (SARS-CoV-2 [2]) |
| --- | --- | --- |
| OC[C@H]1NC[C@H](O)[C@@H](O)[C@H]1O | 0.1704 | – |
| CC(C)CN(C[C@@H](O)[C@H](Cc1ccccc1)NC(=O)O[C@H]1CO[C@H]2OCC[C@H]21)S(=O)(=O)c1ccc(N)cc1 | 0.153 | – |
| NC(=O)c1nc(F)cnc1O | 0.1243 | – |
| N[C@@H](CCN[C@@H](CCN1CC[C@H]1C(=O)O)C(=O)O)C(=O)O | 0.1086 | – |
| CCC(CC)COC(=O)[C@H](C)N[P@](=O)(OC[C@H]1O[C@@](C#N)(c2ccc3c(N)ncnn23)[C@H](O)[C@@H]1O)Oc1ccccc1 | 0.5934 | – |
| O=S(=O)(c1cccc2c(Cl)cccc12)N1CCCNCC1 | 0.1073 | – |
| CC(C)(C)NC(=O)[C@@H]1CN(Cc2cccnc2)CCN1C[C@@H](O)C[C@@H](Cc1ccccc1)C(=O)N[C@H]1c2ccccc2C[C@H]1O.O | 0.2525 | – |
| CCOC(=O)[C@H]1O[C@@H]1C(=O)N[C@@H](CC(C)C)C(=O)NCCC(C)C [ALOXISTATIN] | 0.4403 | – |
| CN(C)C(=O)COC(=O)Cc1ccc(OC(=O)c2ccc(NC(=N)N)cc2)cc1 [CAMOSTAT] | 0.2137 | – |
| CCN(CC)CCCC(C)Nc1ccnc2cc(Cl)ccc12 (configuration not stated) [CHLOROQUINE] | 0.6704 | – |
| CC(C)c1nc(CN(C)C(=O)N[C@@H](CCN2CCOCC2)C(=O)N[C@H](CC[C@H](Cc2ccccc2)NC(=O)OCc2cncs2)Cc2ccccc2)cs1 [COBICISTAT] | 0.2397 | – |
| COC(=O)/C=C/C(=O)OC [DIMETHYL FUMARATE] | 0.1078 | – |
| N#C[C@@]1(c2ccc3c(N)ncnn23)O[C@H](CO)[C@@H](O)[C@H]1O [GS-441524] | 1 | – |
| O=C(CCCN1CCC(O)(c2ccc(Cl)cc2)CC1)c1ccc(F)cc1 [HALOPERIDOL] | 0.07542 | – |
| CCN(CCO)CCCC(C)Nc1ccnc2cc(Cl)ccc12.O=S(=O)(O)O (configuration not stated) [HYDROXYCHLOROQUINE SULFATE] | 0.5553 | – |
| CC[C@H](Nc1ncnc2[nH]cnc12)c1nc2cccc(F)c2c(=O)n1-c1ccccc1 [IDELALISIB] | -0.08519 | – |
| CC(C)Cn1cnc2c(N)nc3ccccc3c21 [IMIQUIMOD] | 0.3174 | – |
| COc1ccc2c(c1)c(CC(=O)O)c(C)n2C(=O)c1ccc(Cl)cc1 [INDOMETHACIN] | 0.1024 | – |
| Cc1cccc(C)c1OCC(=O)N[C@@H](Cc1ccccc1)[C@@H](O)C[C@H](Cc1ccccc1)NC(=O)[C@H](C(C)C)N1CCCNC1=O [LOPINAVIR] | 0.1843 | – |
| C[C@H]1C[C@@H]2[C@H]([C@@H](O)C[C@@]3(C)[C@H]2CC[C@]3(O)C(=O)COC(=O)CCC(=O)[O-])[C@@]2(C)C=CC(=O)C=C12.[Na+] [METHYLPREDNISOLONE SODIUM SUCCINATE] | 0.2294 | – |
| CCC(CC)O[C@@H]1C=C(C(=O)O)C[C@H](N)[C@H]1NC(C)=O [OSELTAMIVIR CARBOXYLATE] | 0.1922 | – |

| Compound | Hit score (SARS-CoV-2 [1]) | Hit score (SARS-CoV-2 [2]) |
| --- | --- | --- |
| C1=N/C2=N/c3ccc(OCCN4CCCC4)c(c3)COC/C=C/COCc3cccc(c3)C(=C1)N2 [PACRITINIB] | 0.2418 | – |
| Nc1nc(O)c2ncn(CCC(CO)CO)c2n1 [PENCICLOVIR] | 0.1283 | – |
| OC[C@H]1O[C@@H](Oc2cc(O)cc(/C=C/c3ccc(O)cc3)c2)[C@H](O)[C@@H](O)[C@@H]1O [PICEID] | 0.06165 | – |
| C=C[C@H]1CN2CC[C@H]1C[C@H]2[C@H](OC(=O)OCC)c1ccnc2ccc(OC)cc12 [QUININE ETHYLCARBONATE] | 0.1489 | – |
| C=C[C@H]1CN2CC[C@H]1C[C@H]2[C@H](O)c1ccnc2ccc(OC)cc12 [QUININE] | 0.2113 | – |
| NC(=O)c1ncn([C@@H]2O[C@H](CO)[C@@H](O)[C@H]2O)n1 [RIBAVIRIN] | 0.1047 | – |
| CC(C)c1nc(CN(C)C(=O)N[C@H](C(=O)N[C@@H](Cc2ccccc2)C[C@H](O)[C@H](Cc2ccccc2)NC(=O)OCc2cncs2)C(C)C)cs1 [RITONAVIR] | 0.1477 | – |
| CC[C@H]1OC(=O)[C@@](C)(F)C(=O)[C@H](C)[C@@H](O[C@@H]2O[C@H](C)C[C@H](N(C)C)[C@H]2O)[C@](C)(OC)C[C@@H](C)C(=O)[C@H](C)[C@H]2N(CCCCn3cc(-c4cccc(N)c4)nn3)C(=O)O[C@]12C [SOLITHROMYCIN] | 0.6032 | – |
| CC(C)OC(=O)OCOP(=O)(CO[C@H](C)Cn1cnc2c(N)ncnc21)OCOC(=O)OC(C)C.O=C(O)/C=C/C(=O)O [TENOFOVIR DISOPROXIL FUMARATE] | 0.1962 | – |
| CC1=CC(=O)C(C(C)C)=CC1=O [THYMOQUINONE] | 0.2773 | – |
| CCOC(=O)c1c(CSc2ccccc2)n(C)c2cc(Br)c(O)c(CN(C)C)c12 [UMIFENOVIR] | 0.1334 | – |
| Eplivanserin hemifumarate | – | -0.0126 |
| FLUPENTIXOL | – | 0.12 |
| GADODIAMIDE | – | 0.193 |
| MONOCTANOIN | – | -0.0148 |
| OXALIPLATIN | – | 0.0878 |
| SPIRAMYCIN | – | 0.139 and 0.136 |
| THIMEROSAL | – | -0.0445 |
| hemomex-s | – | 0.064 |
| perchlozone | – | 0.0874 |
| stetaderm | – | 0.101 |

From ChEMBL document CHEMBL4303122, “Identification of potential treatments for COVID-19 through artificial intelligence-enabled phenomic analysis of human cells infected with SARS-CoV-2” (2020)
